Values quoted from earlier work, collected in US20220193002A1, “PROCESS FOR THE PREPARATION OF BAKUCHIOL COMPOSITION SUBSTANTIALLY FREE OF FURANOCOUMARIN IMPURITIES” (K V Natural Ingredients PVT LTD, priority 2020, published 2022).

System: S. mutans
Conditions: cell growth inhibited in a concentration dependent manner; complete prevention of growth

For `C=C[C@@](C)(/C=C/c1ccc(O)cc1)CCC=C(C)C` [bakuchiol, 4-[(1E,3S)-3-ethenyl-3,7-dimethylocta-1,6-dienyl]phenol], the “concentration at which the growth of S. mutans was completely prevented” value is given as 20 µg/mL.
